How the values were obtained:
in vitro [1] = conditions: African green monkey
[2] = tested on: DENV-2 16681 strain labeled with eGFP; assay: DENV-2 antiviral assay (eGFP fluorescence read-out in Vero cells); assay type: cell-based, Dengue virus; conditions: DENV-2 16681 eGFP, MOI 0.5, 3 days
Description: The antiviral activity of all the compounds of the invention was tested against the DENV-2 16681 strain which was labeled with enhanced green fluorescent protein (eGPF). The culture medium consists of minimal essential medium supplemented with 2% of heat-inactivated fetal calf serum, 0.04% gentamycin (50 mg/mL) and 2 mM of L-glutamine. Vero cells, obtained from ECACC, were suspended in culture medium and 25 μL was added to 384-well plates (2500 cells/well), which already contain the antiviral compounds. Typically, these plates contain a 5-fold serial dilution of 9 dilution steps of the test compound at 200 times the final concentration in 100% DMSO (200 nL). […] Finally, each plate contains wells which are assigned as virus controls (containing cells and virus in the absence of compound), cell controls (containing cells in the absence of virus and compound) and medium controls (containing medium in the absence of cells, virus and compounds). To the wells assigned as medium control, 25 μL of culture medium was added instead of Vero cells. Once the cells were added to the plates, the plates were incubated for 30 minutes at room temperature to allow the cells to distribute evenly within the wells. Next, the plates were incubated in a fully humidified incubator (37° C., 5% CO2) until the next day. Then, DENV-2 strain 16681, labeled with eGFP, was added at a multiplicity of infection (MOI) of 0.5. Therefore, 15 μL of virus suspension was added to all the wells containing test compound and to the wells assigned as virus control. In parallel, 15 μL of culture medium was added to the medium and cell controls. Next, the plates were incubated for 3 days in a fully humidified incubator (37° C., 5% CO2). At the day of the read out, the eGFP fluorescence was measured using an automated fluorescence microscope at 488 nm (blue laser). Using an in-house LIMS system, inhibition dose response curves for each compound were calculated and the half maximal effective concentration (EC50) was determined. Therefore, the percent inhibition (I) for every test concentration is calculated using the following formula: I=100*([…])/(SVC−SCC); ST, SCC and SVC are the amount of eGFP signal in the test compound, cell control and virus control wells, respectively. The EC50 represents the concentration of a compound at which the virus replication is inhibited with 50%, as measured by a 50% reduction of the eGFP fluorescent intensity compared to the virus control. The EC50 is calculated using linear interpolation (Table 1).

DENV-3 strain H87 = assay: Tetravalent RT-qPCR assay Protocol A, serotype 3; assay type: cell-based; conditions: Dengue virus, DENV3, 72 h; RT-qPCR serotype 3 H87, Vero cells, day 3
Description: (§1) The antiviral activity of the compounds of the invention was tested against DENV-1 strain TC974#666 (NCPV), DENV-2 strain 16681, DENV-3 strain H87 (NCPV) and DENV-4 strains H241 (NCPV) and EDEN (SG/06K2270DK1/2005; GenBank accession number QG398256) in a RT-qPCR assay. Therefore, Vero cells were infected with either DENV-1, or -2, or -3, or -4 in the presence or absence of test compounds. At day 3 post-infection, the cells were lysed and cell lysates were used to prepare cDNA of both a viral target (the 3′UTR of DENV; Table 2) and a cellular reference gene (β-actin, Table 2). Subsequently, a duplex real time PCR was performed on a Lightcycler480 instrument. The generated Cp value is inversely proportional to the amount of RNA expression of these targets. Inhibition of DENV replication by a test compound results in a shift of Cp's for the 3′UTR gene. On the other hand, if a test compound is toxic to the cells, a similar effect on β-actin expression will be observed. The comparative ΔΔCp method is used to calculate EC50, which is based on the relative gene expression of the target gene (3′UTR) normalized with the cellular housekeeping gene (β-actin). In addition, CC50 values are determined based on the Cp values acquired for the housekeeping gene β-actin.
(§2) The culture medium consisted of minimal essential medium supplemented with 2% of heat-inactivated fetal calf serum, 0.04% gentamycin (50 mg/mL) and 2 mM of L-glutamine. Vero cells, obtained from ECACC, were suspended in culture medium and 75 μL/well was added in 96-well plates (10000 cells/well), which already contain the antiviral compounds. […] In addition, each plate contains wells which are assigned as virus controls (containing cells and virus in the absence of compound) and cell controls (containing cells in the absence of virus and compound). Once the cells were added in the plates, the plates were incubated in a fully humidified incubator (37° C., 5% CO2) until the next day. Dengue viruses serotype-1, 2, 3 and 4 were diluted in order to obtain a Cp of ˜22-24 in the assay. Therefore, 25 μL of virus suspension, was added to all the wells containing test compound and to the wells assigned as virus control. In parallel, 25 μL of culture medium was added to the cell controls. Next, the plates were incubated for 3 days in a fully humidified incubator (37° C., 5% CO2). After 3 days, the supernatant was removed from the wells and the cells were washed twice with ice-cold PBS (−100 μL). The cell pellets within the 96-well plates were stored at −80° C. for at least 1 day. Next, RNA was extracted using the Cells-to-CT™ lysis kit, according to the manufacturer's guideline (Life Technologies). The cell lysates can be stored at −80° C. or immediately used in the reverse transcription step.
(§3) In preparation of the reverse transcription step, mix A (table 3A) was prepared and 7.57 μL/well was dispensed in a 96-well plate. After addition of 5 μL of the cell lysates, a five minute denaturation step at 75° C. was performed (table 3B). Afterwards, 7.43 μL of mix B was added (table 3C) and the reverse transcription step was initiated (table 3D) to generate cDNA.
(§4) Finally, a RT-qPCR mix was prepared, mix C (table 4A), and 22.02 μL/well was dispensed in 96-well LightCycler qPCR plates to which 3 μL of cDNA was added and the qPCR was performed according to the conditions in table 4B on a LightCycler 480.
(§5) Using the LightCycler software and an in-house LIMS system, dose response curves for each compound were calculated and the half maximal effective concentration (EC50) and the half maximal cytotoxic concentration (CC50) were determined (Tables 5-8).

DENV-4 strain H241 = assay: Tetravalent RT-qPCR assay Protocol A, serotype 4 H241; assay type: cell-based; conditions: Dengue virus, DENV4, 72 h; RT-qPCR serotype 4 H241, Vero cells, day 3
Description: as §1, §2, §3, §4, §5

Vero cells = conditions: African green monkey
in vitro [3] = assay type: cell-based; conditions: African green monkey, CC50
Description: as §1, §2, §5

DENV-1 strain TC974#666 = assay: Tetravalent RT-qPCR assay Protocol A, serotype 1; assay type: cell-based; conditions: Dengue virus, DENV1, 72 h; RT-qPCR serotype 1 TC974#666, Vero cells, day 3
Description: as §1, §2, §3, §4, §5

DENV-2 strain 16681 = assay: Tetravalent RT-qPCR assay Protocol A, serotype 2; assay type: cell-based; conditions: Dengue virus, DENV2, 72 h; RT-qPCR serotype 2 16681, Vero cells, day 3
Description: as §1, §2, §3, §4, §5

[4] = Dengue virus, DENV2, Vero, 72 h

SMILES	CC50 (in vitro [1])	EC50 [2, 4]	EC50 (DENV-3 strain H87)	EC50 (DENV-4 strain H241)	CC50 (Vero cells)	EC50 [2]	CC50 at 3 days (in vitro [3])	EC50 (DENV-1 strain TC974#666)	EC50 (DENV-2 strain 16681)
COc1cc(NC(C(=O)c2c[nH]c3cc(F)ccc23)c2ccc(F)cc2OCCO)cc(S(C)(=O)=O)c1 (racemic) [Compound 1, 1-(6-fluoro-1H-indol-3-yl)-2-(4-fluoro-2-(2-hydroxyethoxy)phenyl)-2-((3-methoxy-5-(methylsulfonyl)phenyl)amino)ethanone]	7600 nM	1.8 nM	–	–	–	–	–	–	–
COc1cc(NC(C(=O)c2c[nH]c3cc(Cl)ccc23)c2ccc(F)cc2OCCO)cc(S(C)(=O)=O)c1 (racemic) [Compound 2, 1-(6-chloro-1H-indol-3-yl)-2-(4-fluoro-2-(2-hydroxyethoxy)phenyl)-2-((3-methoxy-5-(methylsulfonyl)phenyl)amino)-ethanone]	6200 nM	0.81 nM	–	–	–	–	–	–	–
COc1cc(NC(C(=O)c2c[nH]c3c(C)c(F)ccc23)c2ccc(F)cc2OCCO)cc(S(C)(=O)=O)c1 (racemic) [Compound 3, 2-(4-fluoro-2-(2-hydroxyethoxy)phenyl)-1-(6-fluoro-7-methyl-1H-indol-3-yl)-2-((3-methoxy-5-(methylsulfonyl)phenyl)amino)ethanone]	5100 nM	1.2 nM	–	–	–	–	–	–	–
COc1cc(NC(C(=O)c2c[nH]c3c(C)c(Cl)ccc23)c2ccc(F)cc2OCCO)cc(S(C)(=O)=O)c1 (racemic) [Compound 4, 1-(6-chloro-7-methyl-1H-indol-3-yl)-2-(4-fluoro-2-(2-hydroxyethoxy)phenyl)-2-((3-methoxy-5-(methylsulfonyl)phenyl)amino)ethanone]	3500 nM	0.37 nM	–	–	–	–	–	–	–
COc1cc(NC(C(=O)c2c[nH]c3cc(F)c(F)cc23)c2ccc(F)cc2OCCO)cc(S(C)(=O)=O)c1 (racemic) [Compound 5, 1-(5,6-difluoro-1H-indol-3-yl)-2-(4-fluoro-2-(2-hydroxyethoxy)phenyl)-2-((3-methoxy-5-(methylsulfonyl)phenyl)-amino)ethanone]	6900 nM	1 nM	–	–	–	–	–	–	–
COc1cc(NC(C(=O)c2c[nH]c3cc(OC)c(C)cc23)c2ccc(F)cc2OCCO)cc(S(C)(=O)=O)c1 (racemic) [Compound 6, 2-(4-fluoro-2-(2-hydroxyethoxy)phenyl)-2-((3-methoxy-5-(methylsulfonyl)phenyl)amino)-1-(6-methoxy-5-methyl-1H-indol-3-yl)ethanone]	5800 nM	1.4 nM	–	–	–	–	–	–	–
COc1cc(NC(C(=O)c2c[nH]c3c(F)cc(C)cc23)c2ccc(F)cc2OCCO)cc(S(C)(=O)=O)c1 (racemic) [Compound 8, 2-(4-fluoro-2-(2-hydroxyethoxy)phenyl)-1-(7-fluoro-5-methyl-1H-indol-3-yl)-2-((3-methoxy-5-(methylsulfonyl)phenyl)amino)ethanone]	6900 nM	2.3 nM	–	–	–	–	–	–	–
COc1cc(NC(C(=O)c2c[nH]c3cc(OC)c(OC(F)(F)F)cc23)c2ccc(F)cc2OCCO)cc(S(C)(=O)=O)c1 (racemic) [Compound 11, 2-(4-fluoro-2-(2-hydroxyethoxy)phenyl)-2-((3-methoxy-5-(methyl-sulfonyl)phenyl)amino)-1-(6-methoxy-5-(trifluoromethoxy)-1H-indol-3-yl)ethanone]	9000 nM	0.48 nM	–	–	–	–	–	–	–
COc1cc(NC(C(=O)c2c[nH]c3c(C)cc(OC(F)(F)F)cc23)c2ccc(F)cc2OCCO)cc(S(C)(=O)=O)c1 (racemic) [Compound 12, 2-(4-fluoro-2-(2-hydroxyethoxy)phenyl)-2-((3-methoxy-5-(methylsulfonyl)phenyl)amino)-1-(7-methyl-5-(trifluoromethoxy)-1H-indol-3-yl)ethanone]	3700 nM	0.22 nM	–	–	–	–	–	–	–
COc1cc(NC(C(=O)c2c[nH]c3cc(F)c(C)cc23)c2ccc(F)cc2OCCO)cc(S(C)(=O)=O)c1 (single isomer, unassigned) [Compound 7A, 2-(4-fluoro-2-(2-hydroxyethoxy)phenyl)-1-(6-fluoro-5-methyl-1H-indol-3-yl)-2-((3-methoxy-5-(methylsulfonyl)phenyl)amino)ethanone]	–	–	20 nM	120 nM	3100 nM	0.54 nM	> 2400 nM	1.3 nM	0.77 nM
COc1cc(NC(C(=O)c2c[nH]c3c(F)cc(C)cc23)c2ccc(F)cc2OCCO)cc(S(C)(=O)=O)c1 (single isomer, unassigned) [Compound 8A, 2-(4-fluoro-2-(2-hydroxyethoxy)phenyl)-1-(7-fluoro-5-methyl-1H-indol-3-yl)-2-((3-methoxy-5-(methylsulfonyl)phenyl)amino)ethanone]	–	–	36 nM	220 nM	3400 nM	1.1 nM	–	2.3 nM	1.4 nM
COc1cc(NC(C(=O)c2c[nH]c3c(C)cc(Cl)cc23)c2ccc(F)cc2OCCO)cc(S(C)(=O)=O)c1 (single isomer, unassigned) [Compound 9A, 1-(5-chloro-7-methyl-1H-indol-3-yl)-2-(4-fluoro-2-(2-hydroxyethoxy)phenyl)-2-((3-methoxy-5-(methylsulfonyl)phenyl)amino)ethanone]	–	–	16 nM	110 nM	3200 nM	0.39 nM	> 2500 nM	1.4 nM	0.61 nM

From patent US10786484B2, “Mono- or di-substituted indole derivatives as dengue viral replication inhibitors” (Janssen Pharmaceuticals, Inc., priority 2015, dated 2020)
